This note sets out measurements from ChEMBL document CHEMBL6096706, “Discovery of WDR5-MLL1 and HDAC Dual-Target Inhibitors for the Treatment of Acute Myeloid Leukemia” (J Med Chem, 2025).

For data set [1], the system named is MV4-11. In words: Induction of apoptosis in human MV4-11 cells assessed as necrotic cells at 200 nM incubated for 72 hrs in presence of vorinostat by Annexin V/PI staining based flow cytometry analysis (reference value: 2.61%). It is filed as functional.
Data set [2] relates to MV4-11. In words: Antiproliferative activity against human MV4-11 cells assessed as growth inhibition at 0.1 uM measured after 72 hrs by CellTiterGlo assay. It is filed as functional. The settings on record: read-out: GI. For orientation: In ATP-based viability assays light output follows the ATP content of the culture.
The test system of data set [3] is MV4-11. As to the kind of experiment: Antiproliferative activity against human MV4-11 cells assessed as growth inhibition at 0.05 uM measured after 72 hrs in presence of 0.5 uM of vorinostat by CellTiterGlo assay. It is filed as functional. The settings on record: read-out: GI.
For data set [4], the system named is MV4-11. In words: Antiproliferative activity against human MV4-11 cells assessed as growth inhibition at 0.2 uM measured after 72 hrs in presence of 0.05 uM of vorinostat by CellTiterGlo assay. It is filed as functional. The settings on record: read-out: GI.
Data set [5] has as its system MV4-11. As to the kind of experiment: Antiproliferative activity against human MV4-11 cells assessed as growth inhibition at 0.2 uM measured after 72 hrs in presence of 0.5 uM of vorinostat by CellTiterGlo assay. It is filed as functional. The settings on record: read-out: GI.
Data set [6] can be described thus: Toxicity in mouse implanted in human MV4-11 cells assessed as lung damage at 10 to 30 mg/kg, ip administered daily for 17 days by H and E staining based analysis. The settings on record: in vivo, 408 h, dose 10-30 mg/kg, time 17 day. Type of data set: organism-based.
The next data set has as its target Histone deacetylase 2 (Homo sapiens, UniProt Q92769). As to the kind of experiment: Inhibition of HDAC2 (unknown origin) by fluorescence based assay.
Data set [7] concerns the target T1, Protein deacetylase HDAC6 (Homo sapiens, UniProt Q9UBN7).
T1 sequence (Q9UBN7 whole entry): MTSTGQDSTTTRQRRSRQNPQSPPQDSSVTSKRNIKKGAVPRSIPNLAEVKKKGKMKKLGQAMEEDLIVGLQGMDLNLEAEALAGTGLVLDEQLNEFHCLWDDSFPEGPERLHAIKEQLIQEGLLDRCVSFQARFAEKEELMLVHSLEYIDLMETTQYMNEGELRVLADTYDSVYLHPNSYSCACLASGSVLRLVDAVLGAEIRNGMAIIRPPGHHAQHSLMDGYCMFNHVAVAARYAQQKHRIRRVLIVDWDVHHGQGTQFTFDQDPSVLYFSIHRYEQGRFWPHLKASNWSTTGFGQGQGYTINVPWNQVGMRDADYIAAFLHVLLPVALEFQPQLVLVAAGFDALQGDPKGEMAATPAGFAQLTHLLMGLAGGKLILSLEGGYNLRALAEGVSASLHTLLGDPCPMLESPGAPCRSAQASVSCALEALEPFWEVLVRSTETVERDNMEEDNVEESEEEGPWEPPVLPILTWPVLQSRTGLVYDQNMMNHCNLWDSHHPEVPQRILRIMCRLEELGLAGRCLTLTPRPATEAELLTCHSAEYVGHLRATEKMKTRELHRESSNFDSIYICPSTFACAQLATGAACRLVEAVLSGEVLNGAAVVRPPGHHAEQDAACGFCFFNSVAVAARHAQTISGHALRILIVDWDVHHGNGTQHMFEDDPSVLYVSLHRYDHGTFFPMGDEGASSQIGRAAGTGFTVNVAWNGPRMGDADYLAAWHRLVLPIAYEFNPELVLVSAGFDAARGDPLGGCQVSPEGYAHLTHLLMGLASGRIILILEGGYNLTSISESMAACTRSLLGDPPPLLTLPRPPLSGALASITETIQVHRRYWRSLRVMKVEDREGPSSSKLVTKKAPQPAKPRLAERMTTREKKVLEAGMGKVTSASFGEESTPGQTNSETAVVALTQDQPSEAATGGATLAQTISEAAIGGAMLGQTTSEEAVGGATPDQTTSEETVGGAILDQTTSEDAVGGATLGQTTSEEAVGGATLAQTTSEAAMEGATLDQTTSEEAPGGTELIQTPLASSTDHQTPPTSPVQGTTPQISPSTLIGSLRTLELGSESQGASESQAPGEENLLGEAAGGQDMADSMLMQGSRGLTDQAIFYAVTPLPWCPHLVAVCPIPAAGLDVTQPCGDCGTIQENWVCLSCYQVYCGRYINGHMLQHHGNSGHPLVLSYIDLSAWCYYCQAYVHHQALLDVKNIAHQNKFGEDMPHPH
As to the kind of experiment: Inhibition of HDAC6 (unknown origin) by fluorescence based assay.

The nature of data set [8]: Toxicity in mouse implanted in human MV4-11 cells assessed as animal death at 10 to 30 mg/kg, ip administered daily for 17 days. Type of data set: organism-based. The settings on record: in vivo, 408 h, dose 10-30 mg/kg, time 17 day.
Data set [9] concerns MV4-11. In words: Induction of apoptosis in human MV4-11 cells assessed as late apoptotic cells at 50 nmol/L incubated for 72 hrs by Annexin V/PI staining based flow cytometry analysis (reference value: 5.14%). Type of data set: functional. On the technique in general: In flow cytometry, cells or beads pass a laser one at a time.

pIC50: −log10 of the molar value.

Histone deacetylase 2, sequence (Q92769 whole entry): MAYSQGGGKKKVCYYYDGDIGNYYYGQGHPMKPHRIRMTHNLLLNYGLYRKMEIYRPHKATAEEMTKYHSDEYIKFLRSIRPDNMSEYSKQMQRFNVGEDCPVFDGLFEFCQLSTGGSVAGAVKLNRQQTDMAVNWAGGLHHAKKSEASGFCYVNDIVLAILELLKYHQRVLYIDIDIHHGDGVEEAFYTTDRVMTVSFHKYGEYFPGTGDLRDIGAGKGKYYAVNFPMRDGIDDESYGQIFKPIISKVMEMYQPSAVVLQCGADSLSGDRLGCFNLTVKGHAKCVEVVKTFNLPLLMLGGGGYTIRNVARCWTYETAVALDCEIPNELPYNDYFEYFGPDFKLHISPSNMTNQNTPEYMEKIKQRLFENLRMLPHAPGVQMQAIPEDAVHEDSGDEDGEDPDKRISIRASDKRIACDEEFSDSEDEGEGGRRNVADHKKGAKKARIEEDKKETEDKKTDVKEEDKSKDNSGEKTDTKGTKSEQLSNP

Turning to `Cc1c(F)c(N)cc(C(=O)Nc2cc(-c3ccc(C(=O)N4CCOCC4)cc3)ccc2N2CCN(C)CC2)c1Cl`, in the data set with MV4-11 [1], the Activity is given as 1.48%. Further, the inhibition of growth at 0.1 µM in the data set with MV4-11 [2] came out at 19.4%. Moreover, the inhibition of growth at 0.05 µM with MV4-11 [3] stood at 73.2%. For the same compound, the inhibition of growth at 0.2 µM came out at 36.8% in the data set on MV4-11 [4] and 74.7% with MV4-11 [5].

Usually pIC50 stands for −log10 of the IC50, conventionally taken in molar units. Read a low pIC50 as a high IC50. As for `Cc1c(F)c(N)cc(C(=O)Nc2cc(-c3ccc(C(=O)NCc4ccc(/C=C/C(=O)NO)cc4)cc3)ccc2N2CCN(C)CC2)c1Cl`, the Activity entry in [6] is recorded as “Non-toxic”; in [8], “Non-toxic”; in the data set with MV4-11 [9] it was 10.86%. Also, the pIC50 was 6.16 against Histone deacetylase 2 and 7.34 in data set [7].
